The molecules below were run against T1, human TLR9 (Homo sapiens, UniProt Q9NR96) (assay: HEK293-Blue-hTLR-9 cells assay (SEAP reporter, ODN2006 stimulation)). Conditions: HEK293-Blue-hTLR9 cells, ODN2006 ligand, 20 hrs incubation; read-out: HEK/hTLR9 IC50.
T1 construct: host or cells: HEK293 (HEK-Blue hTLR9)
T1 sequence (Q9NR96 26-1032): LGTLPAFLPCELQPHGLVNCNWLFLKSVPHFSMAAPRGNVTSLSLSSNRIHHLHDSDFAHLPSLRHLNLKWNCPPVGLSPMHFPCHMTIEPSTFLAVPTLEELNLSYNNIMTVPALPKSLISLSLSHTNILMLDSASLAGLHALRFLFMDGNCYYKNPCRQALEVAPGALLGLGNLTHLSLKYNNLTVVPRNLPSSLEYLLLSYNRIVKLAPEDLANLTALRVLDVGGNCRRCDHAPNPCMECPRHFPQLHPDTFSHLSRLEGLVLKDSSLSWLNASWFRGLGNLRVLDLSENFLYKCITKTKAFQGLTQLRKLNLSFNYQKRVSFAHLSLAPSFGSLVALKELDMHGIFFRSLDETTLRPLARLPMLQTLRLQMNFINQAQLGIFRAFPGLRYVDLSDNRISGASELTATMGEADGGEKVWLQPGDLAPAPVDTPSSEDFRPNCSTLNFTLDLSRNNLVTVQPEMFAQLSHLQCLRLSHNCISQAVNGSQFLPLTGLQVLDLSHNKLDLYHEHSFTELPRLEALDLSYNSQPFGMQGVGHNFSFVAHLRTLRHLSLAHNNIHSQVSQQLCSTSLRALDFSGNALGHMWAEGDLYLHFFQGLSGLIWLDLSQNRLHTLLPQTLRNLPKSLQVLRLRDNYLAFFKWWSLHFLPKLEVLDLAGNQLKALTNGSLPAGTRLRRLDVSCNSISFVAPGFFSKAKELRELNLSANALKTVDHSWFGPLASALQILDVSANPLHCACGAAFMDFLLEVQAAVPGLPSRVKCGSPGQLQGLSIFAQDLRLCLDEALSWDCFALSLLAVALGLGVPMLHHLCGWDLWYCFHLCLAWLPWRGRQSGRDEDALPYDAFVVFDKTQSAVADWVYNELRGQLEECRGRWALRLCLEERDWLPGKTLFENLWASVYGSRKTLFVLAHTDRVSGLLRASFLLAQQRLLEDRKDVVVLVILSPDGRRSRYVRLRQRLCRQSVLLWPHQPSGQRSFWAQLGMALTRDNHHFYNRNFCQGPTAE
Assay type: cell-based
Excerpt: HEK293-Blue-hTLR-9 Cells Assay:
A stable HEK293-Blue-hTLR-9 cell line was purchased from InvivoGen (Cat. #: hkb-htlr9, San Diego, Calif., USA). These cells were originally designed for studying the stimulation of human TLR9 by monitoring the activation of NF-κB. A SEAP (secreted embryonic alkaline phosphatase) reporter gene was placed under the control of the IFN-β minimal promoter fused to five NF-κB and AP-1-binding sites. The SEAP was induced by activating NF-κB and AP-1 via stimulating HEK-Blue hTLR9 cells with TLR9 ligands. Therefore the reporter expression was declined by TLR9 antagonist under the stimulation of a ligand, such as ODN2006 (Cat. #: tlrl-2006-1, Invivogen, San Diego, Calif., USA), for incubation of 20 hrs. The cell culture supernatant SEAP reporter activity was determined using QUANTI-Blue™ kit (Cat. #: rep-qb1, Invivogen, San Diego, Calif., USA) at a wavelength of 640 nm, a detection medium that turns purple or blue in the presence of alkaline phosphatase.
HEK293-Blue-hTLR9 cells were incubated at a density of 250,000˜450,000 cells/mL in a volume of 170 μL in a 96-well plate in Dulbecco's Modified Eagle's medium (DMEM) containing 4.5 g/L glucose, 50 U/mL penicillin, […], 2 mM L-glutamine, 10% (v/v) heat-inactivated fetal bovine serum with addition of 20 μL test compound in a serial dilution in the presence of final DMSO at 1% and 10 μL of 20 uM ODN2006 in above DMEM, perform incubation under 37° C. in a CO2 incubator for 20 hrs. Then 20 μL of the supernatant from each well was incubated with 180 μL Quanti-blue substrate solution at 37° C. for 2 h and the absorbance was read at 620˜655 nm using a spectrophotometer. The signaling pathway that TLR9 activation leads to downstream NF-κB activation has been widely accepted, and therefore similar reporter assay was modified for evaluating TLR9 antagonist.
Molecule `C[C@@H]1CN(c2cc(=O)n(C)c3ncccc23)C[C@@H]2c3ccc(N4CC(C)(N)C4)cc3CN12` [Example 1, 4-[(4R,10bS)-8-(3-amino-3-methyl-azetidin-1-yl)-4-methyl-3,4,6,10b-tetrahydro-1H-pyrazino[2,1-a]isoindol-2-yl]-1-methyl-1,8-naphthyridin-2-one] has an IC50 of 262 nM.
`C[C@@H]1CN(c2cc(=O)n(C)c3ncccc23)C[C@@H]2c3ccc(N4CC5(CN(C)C5)C4)cc3CN12` [Example 2, 4-[(4R,10bS)-4-methyl-8-(6-methyl-2,6-diazaspiro[3.3]heptan-2-yl)-3,4,6,10b-tetrahydro-1H-pyrazino[2,1-a]isoindol-2-yl]-1-methyl-1,8-naphthyridin-2-one] gave an IC50 of 136 nM.
`C[C@@H]1CN(c2cc(=O)n(C)c3ncccc23)C[C@@H]2c3ccc(N4CC5(CNCCO5)C4)cc3CN12` [Example 3, 4-[(4R,10bS)-4-methyl-8-(5-oxa-2,8-diazaspiro[3.5]nonan-2-yl)-3,4,6,10b-tetrahydro-1H-pyrazino[2,1-a]isoindol-2-yl]-1-methyl-1,8-naphthyridin-2-one] was tested, and the IC50 was 325 nM.
`C[C@@H]1CN(c2cc(=O)n(C)c3ncccc23)C[C@@H]2c3ccc(N4CC[C@@](C)(N)C4)cc3CN12` [Example 4, 4-[(4R,10bS)-8-[(3R)-3-amino-3-methyl-pyrrolidin-1-yl]-4-methyl-3,4,6,10b-tetrahydro-1H-pyrazino[2,1-a]isoindol-2-yl]-1-methyl-1,8-naphthyridin-2-one] was tested, and the IC50 was 127 nM.
In the case of `CO[C@@H]1CN(c2ccc3c(c2)CN2[C@H](C)CN(c4cc(=O)n(C)c5ncccc45)C[C@H]32)C[C@H]1N` [Example 5, 4-[(4R,10bS)-8-[(3R,4R)-3-amino-4-methoxy-pyrrolidin-1-yl]-4-methyl-3,4,6,10b-tetrahydro-1H-pyrazino[2,1-a]isoindol-2-yl]-1-methyl-1,8-naphthyridin-2-one], the IC50 is reported as 257 nM.
`C[C@@H]1CN(c2cc(=O)n(C)c3ncccc23)C[C@@H]2c3ccc(N4C[C@H]5NCCO[C@@H]5C4)cc3CN12` [Example 6, 4-[(4R,10bS)-8-[(4aR,7aR)-3,4,4a,5,7,7a-hexahydro-2H-pyrrolo[3,4-b][1,4]oxazin-6-yl]-4-methyl-3,4,6,10b-tetrahydro-1H-pyrazino[2,1-a]isoindol-2-yl]-1-methyl-1,8-naphthyridin-2-one] was tested, and the IC50 was 197 nM.
With `C[C@@H]1CN(c2cc(=O)n(C)c3ncccc23)C[C@@H]2c3ccc(N4C[C@@H](N)[C@@H](F)C4)cc3CN12` [Example 7, 4-[(4R,10bS)-8-[(3R,4S)-3-amino-4-fluoro-pyrrolidin-1-yl]-4-methyl-3,4,6,10b-tetrahydro-1H-pyrazino[2,1-a]isoindol-2-yl]-1-methyl-1,8-naphthyridin-2-one] the IC50 was 247 nM.
`CO[C@H]1CN(c2ccc3c(c2)CN2[C@H](C)CN(c4cc(=O)n(C)c5ncccc45)C[C@H]32)CC[C@@H]1N` [Example 8, 4-[(4R,10bS)-8-[(3S,4S)-4-amino-3-methoxy-1-piperidyl]-4-methyl-3,4,6,10b-tetrahydro-1H-pyrazino[2,1-a]isoindol-2-yl]-1-methyl-1,8-naphthyridin-2-one] was tested, and the IC50 was 226 nM.
`CO[C@H]1CCN(c2ccc3c(c2)CN2[C@H](C)CN(c4cc(=O)n(C)c5ncccc45)C[C@H]32)C[C@@H]1N` [Example 9, 4-[(4R,10bS)-8-[(3S,4S)-3-amino-4-methoxy-1-piperidyl]-4-methyl-3,4,6,10b-tetrahydro-1H-pyrazino[2,1-a]isoindol-2-yl]-1-methyl-1,8-naphthyridin-2-one] showed an IC50 of 266 nM.
With `COC[C@@H]1CNCCN1c1ccc2c(c1)CN1[C@H](C)CN(c3cc(=O)n(C)c4ncccc34)C[C@H]21` [Example 10, 4-[(4R,10bS)-8-[(2S)-2-(methoxymethyl)piperazin-1-yl]-4-methyl-3,4,6,10b-tetrahydro-1H-pyrazino[2,1-a]isoindol-2-yl]-1-methyl-1,8-naphthyridin-2-one] the IC50 was 248 nM.
`C[C@@H]1CN(c2cc(=O)n(C)c3ncccc23)C[C@@H]2c3ccc(N4CCOC5(CNC5)C4)cc3CN12` [Example 11, 4-[(4R,10bS)-4-methyl-8-(5-oxa-2,8-diazaspiro[3.5]nonan-8-yl)-3,4,6,10b-tetrahydro-1H-pyrazino[2,1-a]isoindol-2-yl]-1-methyl-1,8-naphthyridin-2-one] was tested, and the IC50 was 88 nM.
In the case of `C[C@@H]1CN(c2cc(=O)n(C)c3ncccc23)C[C@@H]2c3ccc(N4CCNCC4)cc3CN12` [Example 12, 4-[(4R,10bS)-4-methyl-8-piperazin-1-yl-3,4,6,10b-tetrahydro-1H-pyrazino[2,1-a]isoindol-2-yl]-1-methyl-1,8-naphthyridin-2-one], the IC50 is reported as 192 nM.
`C[C@@H]1CN(c2cc(=O)n(C)c3ncccc23)C[C@@H]2c3ccc(N4CCN[C@@H](C)C4)cc3CN12` [Example 13, 4-[(4R,10bS)-4-methyl-8-[(3S)-3-methylpiperazin-1-yl]-3,4,6,10b-tetrahydro-1H-pyrazino[2,1-a]isoindol-2-yl]-1-methyl-1,8-naphthyridin-2-one] gave an IC50 of 186 nM.
Work on `C[C@@H]1CN(c2ccc3c(c2)CN2[C@H](C)CN(c4cc(=O)n(C)c5ncccc45)C[C@H]32)CCN1` [Example 14, 4-[(4R,10bS)-4-methyl-8-[(3R)-3-methylpiperazin-1-yl]-3,4,6,10b-tetrahydro-1H-pyrazino[2,1-a]isoindol-2-yl]-1-methyl-1,8-naphthyridin-2-one] yielded an IC50 of 144 nM.
With `C[C@@H]1CN(c2cc(=O)n(C)c3ncccc23)C[C@@H]2c3ccc(N4CCC[C@](C)(N)C4)cc3CN12` [Example 15, 4-[(4R,10bS)-8-[(3S)-3-amino-3-methyl-1-piperidyl]-4-methyl-3,4,6,10b-tetrahydro-1H-pyrazino[2,1-a]isoindol-2-yl]-1-methyl-1,8-naphthyridin-2-one] the IC50 was 84 nM.
`C[C@@H]1CN(c2cc(=O)n(C)c3ncccc23)C[C@@H]2c3ccc(N4CCC[C@@H](N)C4)cc3CN12` [Example 16, 4-[(4R,10bS)-8-[(3R)-3-amino-1-piperidyl]-4-methyl-3,4,6,10b-tetrahydro-1H-pyrazino[2,1-a]isoindol-2-yl]-1-methyl-1,8-naphthyridin-2-one] was tested, and the IC50 was 101 nM.
For `C[C@@H]1CNCCN1c1ccc2c(c1)CN1[C@H](C)CN(c3cc(=O)n(C)c4ncccc34)C[C@H]21` [Example 17, 4-[(4R,10bS)-4-methyl-8-[(2R)-2-methylpiperazin-1-yl]-3,4,6,10b-tetrahydro-1H-pyrazino[2,1-a]isoindol-2-yl]-1-methyl-1,8-naphthyridin-2-one], the IC50 was 222 nM.
With `C[C@@H]1CN(c2cc(=O)n(C)c3ncccc23)C[C@@H]2c3ccc(N4CCC(C)(N)CC4)cc3CN12` [Example 18, 4-[(4R,10bS)-8-(4-amino-4-methyl-1-piperidyl)-4-methyl-3,4,6,10b-tetrahydro-1H-pyrazino[2,1-a]isoindol-2-yl]-1-methyl-1,8-naphthyridin-2-one] the IC50 was 163 nM.
`C[C@@H]1CN(c2cc(=O)n(C)c3ncccc23)C[C@@H]2c3ccc(N4C[C@@H]5C[C@H]4CN5)cc3CN12` [Example 19, 4-[(4R,10bS)-8-[(1S,4S)-2,5-diazabicyclo[2.2.1]heptan-2-yl]-4-methyl-3,4,6,10b-tetrahydro-1H-pyrazino[2,1-a]isoindol-2-yl]-1-methyl-1,8-naphthyridin-2-one] was tested, and the IC50 was 116 nM.
